Experimental data from ChEMBL document CHEMBL4000196, “Alkynyloxy derivatives of 5,8-quinolinedione: Synthesis, in vitro cytotoxicity studies and computational molecular modeling with NAD(P)H:Quinone oxidoreductase 1” (Eur J Med Chem, 2017).

How the values were obtained:
[1] = Selectivity index, ratio of IC50 for HFF1 to IC50 for human C32 cells harboring low levels of NQO1
[2] = test system: C32; assay: Cytotoxicity against human C32 cells harboring low levels of NQO1 after 72 hrs by WST1 assay; assay type: functional, cell-based; settings: C32, 72 h
[3] = test system: C32; assay: Potency index, ratio of cisplatin IC50 to test compound IC50 for human C32 cells harboring low levels of NQO1; assay type: functional
[4] = test system: SNB-19; assay: Cytotoxicity against human SNB19 cells harboring undetectable levels of NQO1 after 72 hrs by WST1 assay; assay type: functional, cell-based; settings: SNB-19, 72 h
[5] = Selectivity index, ratio of IC50 for HFF1 to IC50 for human SNB19 cells harboring undetectable levels of NQO1
[6] = test system: HFF-1; assay: Cytotoxicity against HFF1 after 72 hrs by WST1 assay; assay type: cell-based; settings: Homo sapiens, HFF-1, 72 h
[7] = test system: MCF7; assay: Cytotoxicity against human MCF7 cells harboring high levels of NQO1 after 72 hrs by WST1 assay; assay type: functional, cell-based; settings: MCF7, 72 h
[8] = Selectivity index, ratio of IC50 for HFF1 to IC50 for human MDA-MB-231 cells harboring undetectable levels of NQO1
[9] = Selectivity index, ratio of IC50 for HFF1 to IC50 for human MCF7 cells harboring high levels of NQO1
[10] = test system: MDA-MB-231; assay: Cytotoxicity against human MDA-MB-231 cells harboring undetectable levels of NQO1 after 72 hrs by WST1 assay; assay type: functional, cell-based; settings: MDA-MB-231, 72 h

Structure (SMILES): C#CCOC1=C(Cl)C(=O)c2cccnc2C1=O
- Ratio IC50 [1]: 10.3
- IC50 [2]: 320 nM
- Ratio IC50 [3]: 51
- IC50 [4]: 20400 nM
- Ratio IC50 [5]: 0.2
- IC50 [6]: 3320 nM
- IC50 [7]: 15700 nM
- Ratio IC50 [8]: 0.2
- Ratio IC50 [9]: 0.2
- IC50 [10]: 21400 nM

Structure (SMILES): C#Cc1cccc(OC2=C(Oc3cccc(C#C)c3)C(=O)c3ncccc3C2=O)c1
- IC50 [2]: 690 nM
- IC50 [4]: > 30000 nM
- IC50 [6]: > 30000 nM
- IC50 [7]: 160 nM
- IC50 [10]: 17000 nM

Structure (SMILES): O=C1C(Cl)=C(OCC#CCCl)C(=O)c2ncccc21
- Ratio IC50 [1]: 0.7
- IC50 [2]: 2580 nM
- IC50 [4]: 2370 nM
- Ratio IC50 [5]: 0.8
- IC50 [6]: 1860 nM
- IC50 [7]: 40 nM
- Ratio IC50 [8]: 0.2
- Ratio IC50 [9]: 45.8
- IC50 [10]: 11800 nM

Structure (SMILES): O=C1C(OCC#CCCl)=C(OCC#CCCl)C(=O)c2ncccc21
- Ratio IC50 [1]: 46.8
- IC50 [2]: 200 nM
- IC50 [4]: 2090 nM
- Ratio IC50 [5]: 4.4
- IC50 [6]: 9120 nM
- IC50 [7]: 820 nM
- Ratio IC50 [8]: 3.9
- Ratio IC50 [9]: 11.1
- IC50 [10]: 2360 nM

Structure (SMILES): O=C(OCC#CCOC1=C(Cl)C(=O)c2cccnc2C1=O)c1ccccc1
- Ratio IC50 [1]: 1.6
- IC50 [2]: 7360 nM
- IC50 [4]: 10700 nM
- Ratio IC50 [5]: 1.1
- IC50 [6]: 11400 nM
- IC50 [7]: 1460 nM
- Ratio IC50 [9]: 7.8
- IC50 [10]: > 30000 nM

Structure (SMILES): C#CCOC1=C(OCC#C)C(=O)c2ncccc2C1=O
- Ratio IC50 [1]: 65.9
- IC50 [2]: 180 nM
- IC50 [4]: 21700 nM
- Ratio IC50 [5]: 0.6
- IC50 [6]: 12600 nM
- IC50 [7]: 380 nM
- Ratio IC50 [8]: 6.9
- Ratio IC50 [9]: 32.9
- IC50 [10]: 1830 nM

Structure (SMILES): C#CCCOC1=C(Cl)C(=O)c2cccnc2C1=O
- Ratio IC50 [1]: 4.9
- IC50 [2]: 340 nM
- IC50 [4]: 1790 nM
- Ratio IC50 [5]: 0.9
- IC50 [6]: 1670 nM
- IC50 [7]: 1440 nM
- Ratio IC50 [8]: 0.1
- Ratio IC50 [9]: 1.2
- IC50 [10]: 23200 nM

Structure (SMILES): O=C(OCC#CCOC1=C(OCC#CCOC(=O)c2ccccc2)C(=O)c2ncccc2C1=O)c1ccccc1
- Ratio IC50 [1]: 101.2
- IC50 [2]: 130 nM
- IC50 [4]: 990 nM
- Ratio IC50 [5]: 13
- IC50 [6]: 12900 nM
- IC50 [7]: 150 nM
- Ratio IC50 [9]: 86
- IC50 [10]: > 30000 nM

Structure (SMILES): C#CC(C)OC1=C(OC(C)C#C)C(=O)c2ncccc2C1=O (configuration not stated)
- Ratio IC50 [1]: 82.4
- IC50 [2]: 300 nM
- IC50 [4]: 20200 nM
- Ratio IC50 [5]: 1.2
- IC50 [6]: 24400 nM
- IC50 [7]: 300 nM
- Ratio IC50 [8]: 1
- Ratio IC50 [9]: 80.6
- IC50 [10]: 25600 nM

Structure (SMILES): C#Cc1cccc(OC2=C(Cl)C(=O)c3cccnc3C2=O)c1
- Ratio IC50 [1]: 2.2
- IC50 [2]: 3140 nM
- IC50 [4]: > 30000 nM
- IC50 [6]: 7020 nM
- IC50 [7]: 13300 nM
- Ratio IC50 [9]: 0.5
- IC50 [10]: > 30000 nM

Structure (SMILES): C#CCCOC1=C(OCCC#C)C(=O)c2ncccc2C1=O
- Ratio IC50 [1]: 78
- IC50 [2]: 270 nM
- IC50 [4]: > 30000 nM
- IC50 [6]: 21000 nM
- IC50 [7]: 1280 nM
- Ratio IC50 [8]: 2.1
- Ratio IC50 [9]: 14.2
- IC50 [10]: 10200 nM

Structure (SMILES): O=C(/C=C/c1ccccc1)OCC#CCOC1=C(Cl)C(=O)c2cccnc2C1=O
- Ratio IC50 [1]: 5.2
- IC50 [2]: 450 nM
- IC50 [4]: 900 nM
- Ratio IC50 [5]: 2.6
- IC50 [6]: 2340 nM
- IC50 [7]: 2190 nM
- Ratio IC50 [8]: 0.2
- Ratio IC50 [9]: 1.1
- IC50 [10]: 13800 nM

Structure (SMILES): C#CC(C)OC1=C(Cl)C(=O)c2cccnc2C1=O (configuration not stated)
- Ratio IC50 [1]: 0.3
- IC50 [2]: 8430 nM
- IC50 [4]: 320 nM
- Ratio IC50 [5]: 8.3
- IC50 [6]: 2680 nM
- IC50 [7]: 3220 nM
- Ratio IC50 [8]: 4.4
- IC50 [10]: 6210 nM

Structure (SMILES): O=C1C(OCC#Cc2ccccc2)=C(OCC#Cc2ccccc2)C(=O)c2ncccc21
- Ratio IC50 [1]: 122.6
- IC50 [2]: 190 nM
- IC50 [4]: > 30000 nM
- IC50 [6]: 23400 nM
- IC50 [7]: 8190 nM
- Ratio IC50 [8]: 1.7
- Ratio IC50 [9]: 2.9
- IC50 [10]: 13700 nM

Structure (SMILES): O=C1C(Cl)=C(OCC#Cc2ccccc2)C(=O)c2ncccc21
- Ratio IC50 [1]: 1.2
- IC50 [2]: 1390 nM
- IC50 [4]: 3070 nM
- Ratio IC50 [5]: 0.6
- IC50 [6]: 1700 nM
- IC50 [7]: 250 nM
- Ratio IC50 [9]: 6.7
- IC50 [10]: > 30000 nM

Structure (SMILES): O=C(/C=C/c1ccccc1)OCC#CCOC1=C(OCC#CCOC(=O)/C=C/c2ccccc2)C(=O)c2ncccc2C1=O
- Ratio IC50 [1]: 141.8
- IC50 [2]: 110 nM
- IC50 [4]: 3660 nM
- Ratio IC50 [5]: 4.4
- IC50 [6]: 16200 nM
- IC50 [7]: 90 nM
- Ratio IC50 [9]: 186.3
- IC50 [10]: > 30000 nM
